Measurements reported in patent US20180369258A1, “ANTI-BACTERIAL COMPOUNDS BASED ON AMINO-GOLD PHOSPHINE COMPLEXES” (priority 2015, published 2018).

Experiments:
Format in all cases: cell-based
V. cholerae = experiment: In vitro growth inhibition of V. cholerae (MIC); settings: background statement for auranofin
[1] = test system: S. aureus (Oxford strain); experiment: Growth assay for S. aureus (MIC); settings: background statement for auranofin
Protocol: Stock solution of the test compounds (20 mg/ml) in dimethyl sulfoxide (DMSO) were serially diluted in DMSO and each diluted compound added in duplicate to a 96-well plate to a final DMSO concentration of 2% (v/v). An overnight culture of S. aureus (Oxford strain) grown in tryptic soy broth (TSB) was diluted to approximately 5×10^7 cfu/ml and 150 μl of this sample was added to each well of the 96-well plates. Control wells included an ‘untreated’ control with bacteria in TSB in the presence of 2% DMSO and a negative sample (containing 150 μl TSB growth media in the presence of 2% DMSO). Plates were incubated in a shaking incubator at 37° C. for 22-24 hours and bacterial growth assessed by absorbance at a wavelength of 595 nm. The minimum inhibitory concentration (MIC) was defined as the lowest concentration of compound that inhibited growth compared to the no-treatment control.

K. pneumoniae 13368 = experiment: Disk diffusion assay, multidrug resistant clinical isolate
Protocol: (§1) The activity of test compounds against multi-drug resistant bacterial strains was assessed by the disk diffusion assay; a standardised method to assess for the antimicrobial susceptibility of microorganisms (adapted from EUCAST, Version 5, January 2015). In brief, bacterial cultures were suspended in phosphate buffer and spread evenly onto blood agar plates. Cellulose disks (5 mm) were placed onto the agar plates and 3 μl test compound (60 μg/disk) were pipetted to the centre. A panel of standard antibiotics disks (Sigma) were used to control for the antimicrobial resistance profile of the individual strains (quantity as indicated in the table). The plates were then placed into a thermo-incubator and were cultured at 37° C. over-night. Activity was recorded by measuring the zone of clearance (mm) around the disks.

E. faecalis DSM13591 = experiment: as above
Protocol: as §1

A. baumannii NC13421 = experiment: as above
Protocol: as §1

E. coli 13400 = experiment: as above
Protocol: as §1

[2] = test system: human hepatocyte cell line (HepG2); experiment: HepG2 cell inhibition assay (CCK-8 viability); settings: 50% growth inhibition vs untreated control, 24 hours
Protocol: Cell counting kit-8 (Sigma, CCK-8) assays were performed to assess the effect of compounds on cell viability. The assay is based on the reduction of a water-soluble tetrazolium salt (WST-8) by cellular dehydrogenases to a formazan dye which can be detected spectroscopically. 96-well plates were seeded with the human hepatocyte cell line (HepG2) at approximately 8×10^3 cells per well in Eagle's Minimum Essential Medium (EMEM) with Earle's salts and sodium bicarbonate supplemented with 10% heat-inactivated foetal bovine serum 2 mM glutamine and 1% non-essential amino acids (NEAA). The following day serial dilutions of compounds (dissolved and diluted in DMSO) were added to the cells in duplicates. Control wells included an ‘untreated’ control where cells were grown in the presence of 1% DMSO and a ‘medium only’ control (plus 1% DMSO). After 24 hours CCK-8 reagent (10 μl) was added to each well and cell viability was assessed by measuring the absorbance at a wavelength of 450 nm after 2-3 h hours. Only living cells can reduce the tetrazolium salts into coloured formazan products. Results were expressed as 50% growth inhibition (TD50) values compared to ‘untreated’ control.

With `CC(=O)OC[C@H]1O[C@@H]([S-])[C@H](OC(C)=O)[C@@H](OC(C)=O)[C@@H]1OC(C)=O.CCP(CC)CC.[Au+]` [Auranofin] the “MIC, in vitro growth of V. cholerae” value (V. cholerae) was 2.5 µg/mL and the “MIC, in vitro growth of S. aureus (Oxford strain)” value [1] was 0.6 to 0.9 µg/mL.

In the case of `CO/N=C(\C(=O)N[C@@H]1C(=O)N2C(C(=O)O)=C(COC(C)=O)CS[C@H]12)c1csc(N)n1` [Cefotaxime], the “Size of Clearance of Zone” value (K. pneumoniae 13368; antibiotic disk 30 μg) was “R”, the “Size of Clearance of Zone” value (E. faecalis DSM13591; antibiotic disk 30 μg) was “R” and the “Size of Clearance of Zone” value (A. baumannii NC13421; antibiotic disk 30 μg) was “R”. The “Size of Clearance of Zone” value (E. coli 13400; antibiotic disk 30 μg) was 18 mm.

With `CO/N=C(\C(=O)N[C@@H]1C(=O)N2C(C(=O)O)=C(CSc3nc(=O)c(=O)[nH]n3C)CS[C@H]12)c1csc(N)n1` [Ceftriaxone] the “Size of Clearance of Zone” value (K. pneumoniae 13368; antibiotic disk 30 μg) was “R”, the “Size of Clearance of Zone” value (E. faecalis DSM13591; antibiotic disk 30 μg) was “R” and the “Size of Clearance of Zone” value (A. baumannii NC13421; antibiotic disk 30 μg) was “R”. The “Size of Clearance of Zone” value (E. coli 13400; antibiotic disk 30 μg) was “R”.

In the case of `C[P](C)(C)=[Au][N]1CCOCC1=O` [Compound 1], the “HepG2 cell TD50” value [2] was 4 µg/mL.

For `C[P](C)(C)=[Au][N]1CCCCC1=O` [Compound 2], the “HepG2 cell TD50” value [2] was 3 µg/mL.

`CC[P](CC)(CC)=[Au][N]1CCOCC1=O` [Compound 3] was tested, and the “HepG2 cell TD50” value [2] was 6 µg/mL.

In the case of `CC[N]([Au]=[P](C)(C)C)C(C)=O` [Compound 4], the “HepG2 cell TD50” value [2] was 7 µg/mL.

With `CN1CC[N]([Au]=[P](C)(C)C)C1=O` [Compound 5] the “HepG2 cell TD50” value [2] was 6 µg/mL.

In the case of `C[P](C)(C)=[Au][N]1CCN(c2ccccc2)C1=O` [Compound 6], the “HepG2 cell TD50” value [2] was 9 µg/mL.

In the case of `C[P](C)(C)=[Au][N]1C(=O)CCC1=O` [Compound 7], the “HepG2 cell TD50” value [2] was 11 µg/mL.

`C[P](C)(C)=[Au][N]1C(=O)COCC1=O` [Compound 8] was tested, and the “HepG2 cell TD50” value [2] was 9 µg/mL.

In the case of `C[P](C)(C)=[Au][N]1CCOC1=O` [Compound 9], the “HepG2 cell TD50” value [2] was 7 µg/mL.

With `C[P](C)(C)=[Au][N]1C(=O)c2ccccc2C1=O` [Compound 10] the “HepG2 cell TD50” value [2] was 15 µg/mL.

In the case of `CC[P](CC)(CC)=[Au][N]1C(=O)c2ccccc2C1=O` [Compound 11], the “HepG2 cell TD50” value [2] was 4 µg/mL.

In the case of `C[P](C)(C)=[Au][N]1C(=O)COc2ccccc21` [Compound 12], the “HepG2 cell TD50” value [2] was 4 µg/mL.

With `C[P](C)(C)=[Au][n]1ccccc1=O` [Compound 13] the “HepG2 cell TD50” value [2] was 3 µg/mL.

For `C[P](C)(C)=[Au][N]1C(=O)CCCC1=O` [Compound 14], the “HepG2 cell TD50” value [2] was 7 µg/mL.

`C[P](C)(C)=[Au][N]1C(=O)C2CCCN2C1=O` (stereo not shown) [Compound 15] was tested, and the “HepG2 cell TD50” value [2] was 3 µg/mL.

For `CC1C(=O)[N]([Au]=[P](C)(C)C)C(=O)N1c1ccccc1` (stereo not shown) [Compound 16], the “HepG2 cell TD50” value [2] was 10 µg/mL.

For `CN1C(=O)[N]([Au]=[P](C)(C)C)C(=O)C1(C)C` [Compound 17], the “HepG2 cell TD50” value [2] was 8 µg/mL.

For `C[P](C)(C)=[Au][N]1CCCOC1=O` [Compound 18], the “HepG2 cell TD50” value [2] was 5 µg/mL.

With `CN1C(=O)[N]([Au]=[P](C)(C)C)C(=O)C12CCCC2` [Compound 19] the “HepG2 cell TD50” value [2] was 13 µg/mL.

`C[P](C)(C)=[Au][N]1Cc2ccccc2C1=O` [Compound 20] was tested, and the “HepG2 cell TD50” value [2] was 2 µg/mL.

`C[N]([Au]=[P](C)(C)C)S(C)(=O)=O` [Compound 21] was tested, and the “HepG2 cell TD50” value [2] was 4 µg/mL.

For `C[N]([Au]=[P](C)(C)C)S(=O)(=O)c1ccccc1` [Compound 24], the “HepG2 cell TD50” value [2] was 5 µg/mL.

In the case of `C[P](C)(C)=[Au][n]1ccn(-c2ccccc2)c1=O` [Compound 25], the “HepG2 cell TD50” value [2] was 5 µg/mL.

In the case of `COc1ccc(N2CC[N]([Au]=[P](C)(C)C)C2=O)cc1` [Compound 26], the “HepG2 cell TD50” value [2] was 6 µg/mL.

In the case of `C[P](C)(C)=[Au][N]1CCN(c2ccc(F)cc2)C1=O` [Compound 27], the “HepG2 cell TD50” value [2] was 4 µg/mL.

In the case of `C[P](C)(C)=[Au][N]1CCCS1(=O)=O` [Compound 28], the “HepG2 cell TD50” value [2] was 9 µg/mL.

In the case of `C[P](C)(C)=[Au][N]1CCCCS1(=O)=O` [Compound 29], the “HepG2 cell TD50” value [2] was 3 µg/mL.

For `CC1(C)OC(=O)[N]([Au]=[P](C)(C)C)C1=O` [Compound 30], the “HepG2 cell TD50” value [2] was 3 µg/mL.

In the case of `C[P](C)(C)=[Au][N]1CCCC1=O` [Compound 31], the “HepG2 cell TD50” value [2] was 3 µg/mL.

In the case of `C[P](C)(C)=[Au][n]1cccn1` [Compound 36], the “HepG2 cell TD50” value [2] was 7.3 µg/mL.

`C[P](C)(C)=[Au][n]1ccnn1` [Compound 37] was tested, and the “HepG2 cell TD50” value [2] was 11.9 µg/mL.

For `C[P](C)(C)=[Au][n]1cnnc1` [Compound 38], the “HepG2 cell TD50” value [2] was 7 µg/mL.

In the case of `COc1ccc2c(c1)nc[n]2[Au]=[P](C)(C)C` [Compound 39], the “HepG2 cell TD50” value [2] was 9 µg/mL.

`C[P](C)(C)=[Au][n]1cnnn1` [Compound 40] was tested, and the “HepG2 cell TD50” value [2] was 6 µg/mL.

In the case of `C[P](C)(C)=[Au][n]1cc(C(F)(F)F)cn1` [Compound 41], the “HepG2 cell TD50” value [2] was 16 µg/mL.

With `C[P](C)(C)=[Au][n]1ncc2cccnc21` [Compound 42] the “HepG2 cell TD50” value [2] was 5 µg/mL.

In the case of `C[P](C)(C)=[Au][n]1ccnc1` [Compound 43], the “HepG2 cell TD50” value [2] was 4 µg/mL.

With `C[P](C)(C)=[Au][n]1cnc2ccccc21` [Compound 44] the “HepG2 cell TD50” value [2] was 5 µg/mL.

`Cc1nc2ccccc2[n]1[Au]=[P](C)(C)C` [Compound 45] was tested, and the “HepG2 cell TD50” value [2] was 5 µg/mL.

`Cc1nnc(C)[n]1[Au]=[P](C)(C)C` [Compound 46] was tested, and the “HepG2 cell TD50” value [2] was 5 µg/mL.

For `Cc1ncc[n]1[Au]=[P](C)(C)C` [Compound 47], the “HepG2 cell TD50” value [2] was 3.9 µg/mL.

For `C[P](C)(C)=[Au][n]1ccnc1C(F)(F)F` [Compound 48], the “HepG2 cell TD50” value [2] was 4 µg/mL.

In the case of `COc1ccc2c(cn[n]2[Au]=[P](C)(C)C)c1` [Compound 50], the “HepG2 cell TD50” value [2] was 3 µg/mL.

In the case of `C[P](C)(C)=[Au][n]1cnc2cccnc21` [Compound 51], the “HepG2 cell TD50” value [2] was 3 µg/mL.

`C[C@@H](O)[C@H]1C(=O)N2C(C(=O)O)=C(S[C@@H]3CN[C@H](C(=O)Nc4cccc(C(=O)O)c4)C3)[C@H](C)[C@H]12` [Ertapenem] was tested, and the “Size of Clearance of Zone” value (K. pneumoniae 13368; antibiotic disk 10 μg) was “R”, the “Size of Clearance of Zone” value (E. faecalis DSM13591; antibiotic disk 10 μg) was 14 mm and the “Size of Clearance of Zone” value (A. baumannii NC13421; antibiotic disk 10 μg) was “R”. The “Size of Clearance of Zone” value (E. coli 13400; antibiotic disk 10 μg) was 30 mm.

In the case of `C[C@@H](O)[C@H]1C(=O)N2C(C(=O)O)=C(SCCN=CN)C[C@H]12` [Imipenem], the “Size of Clearance of Zone” value (K. pneumoniae 13368; antibiotic disk 10 μg) was 18 mm, the “Size of Clearance of Zone” value (E. faecalis DSM13591; antibiotic disk 10 μg) was 26 mm and the “Size of Clearance of Zone” value (A. baumannii NC13421; antibiotic disk 10 μg) was “R”. The “Size of Clearance of Zone” value (E. coli 13400; antibiotic disk 10 μg) was 29 mm.

In the case of `CC(=O)NC[C@H]1CN(c2ccc(N3CCOCC3)c(F)c2)C(=O)O1` [Linezolid], the “Size of Clearance of Zone” value (E. faecalis DSM13591; antibiotic disk 10 μg) was 22 mm.

In the case of `C[C@@H](O)[C@H]1C(=O)N2C(C(=O)O)=C(S[C@@H]3CN[C@H](C(=O)N(C)C)C3)[C@H](C)[C@H]12` [Meropenem], the “Size of Clearance of Zone” value (K. pneumoniae 13368; antibiotic disk 10 μg) was 22 mm, the “Size of Clearance of Zone” value (E. faecalis DSM13591; antibiotic disk 10 μg) was 17 mm and the “Size of Clearance of Zone” value (A. baumannii NC13421; antibiotic disk 10 μg) was “R”.

In the case of `CN[C@H](CC(C)C)C(=O)N[C@H]1C(=O)N[C@@H](CC(N)=O)C(=O)N[C@H]2C(=O)N[C@H]3C(=O)N[C@H](C(=O)N[C@H](C(=O)O)c4cc(O)cc(O)c4-c4cc3ccc4O)[C@H](O)c3ccc(c(Cl)c3)Oc3cc2cc(c3O[C@@H]2O[C@H](CO)[C@@H](O)[C@H](O)[C@H]2O[C@H]2C[C@](C)(N)[C@H](O)[C@H](C)O2)Oc2ccc(cc2Cl)[C@H]1O` [Vancomycin], the “Size of Clearance of Zone” value (E. faecalis DSM13591; antibiotic disk 30 μg) was “R”.

In the case of Colistin, the “Size of Clearance of Zone” value (K. pneumoniae 13368; antibiotic disk 10 μg) was 9.5 mm, the “Size of Clearance of Zone” value (A. baumannii NC13421; antibiotic disk 10 μg) was 11 mm and the “Size of Clearance of Zone” value (E. coli 13400; antibiotic disk 10 μg) was 12 mm.
